In patent US11452717B2, “Small molecule activators of nicotinamide phosphoribosyltransferase (NAMPT) and uses thereof” (Sanford Burnham Prebys Medical Discovery Institute, priority 2017, dated 2022) one finds EC50 data, which are given here for 34 compounds.

This assay addresses NAMPT enzyme (Homo sapiens (Human), UniProt P43490). Kind of assay: Enzyme Assay and NMN Detection (NAMPT reaction, fluorescence detection of NMN). In kind it is biochemical. The following applies: NAMPT activation, NMN formation. In outline:
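NMN formed was read at ex380/em460 after acetophenone/KOH derivatization and formic acid addition, using a same-day calibration curve. Final conditions: NAMPT 16 nM, nicotinamide 5 uM, PRPP 6.25 uM, ATP 120 uM, pyrophosphatase 0.04 U/ml, pH 7.5 HEPES buffer with MgCl2 and TCEP, 2 h at room temperature.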

Molecules are shown by their SMILES. Where only a bound is given, the exact number is not on record here.

Chain of NAMPT enzyme (P43490 whole entry, species assumed): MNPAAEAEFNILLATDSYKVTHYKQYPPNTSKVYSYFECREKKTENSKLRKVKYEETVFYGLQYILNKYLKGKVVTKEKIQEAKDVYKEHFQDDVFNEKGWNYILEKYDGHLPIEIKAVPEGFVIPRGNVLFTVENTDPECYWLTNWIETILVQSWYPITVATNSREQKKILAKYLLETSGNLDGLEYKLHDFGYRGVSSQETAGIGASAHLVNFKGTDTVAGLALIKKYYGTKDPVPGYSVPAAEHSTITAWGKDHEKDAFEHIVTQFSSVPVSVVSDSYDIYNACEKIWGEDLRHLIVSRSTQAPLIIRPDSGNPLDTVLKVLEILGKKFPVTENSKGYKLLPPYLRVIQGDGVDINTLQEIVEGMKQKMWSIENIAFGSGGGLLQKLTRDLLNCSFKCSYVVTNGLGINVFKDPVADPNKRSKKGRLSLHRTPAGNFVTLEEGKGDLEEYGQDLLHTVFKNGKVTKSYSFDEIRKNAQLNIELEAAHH

As to `O=C(NCc1ccncc1)Nc1ccc(C(=O)Nc2ccc3c(c2)OCO3)cc1` [N-(benzo[d][1,3]dioxol-5-yl)-4-(3-(pyridin-4-ylmethyl)ureido)benzamide], for the setting “Table B-2”, the EC50 – broadly, the midpoint of the concentration-response curve – fell in the range of 5 to 20 µM.
The same measure, in the same setting: in the case of `O=C(NCc1ccncc1)Nc1cccc(S(=O)(=O)NCC2CCC2)c1` [N-(cyclobutylmethyl)-3-(3-(pyridin-4-ylmethyl)ureido)benzenesulfonamide] it was more than 20 µM.
Same read-out and setting: to `O=C(NCc1ccncc1)Nc1ccc(C(=O)NCC2CCCC2)cc1` [N-(cyclopentylmethyl)-4-(3-(pyridin-4-ylmethyl)ureido)benzamide] belongs 5 to 20 µM; to `O=C(NCc1ccncc1)Nc1ccc(C(=O)NCC2CC2)cc1` [N-(cyclopropylmethyl)-4-(3-(pyridin-4-ylmethyl)ureido)benzamide], 2 to 5 µM; to `O=C(NCc1ccncc1)Nc1ccc(C(=O)Nc2ccccn2)cc1` [N-(pyridin-2-yl)-4-(3-(pyridin-4-ylmethyl)ureido)benzamide], 5 to 20 µM.
Same read-out and setting: in the case of `O=C(NCc1ccncc1)Nc1ccc(C(=O)Nc2cccnc2)cc1` [N-(pyridin-3-yl)-4-(3-(pyridin-4-ylmethyl)ureido)benzamide] it was more than 20 µM; in that of `O=C(NCc1ccncc1)Nc1ccc(C(=O)NCc2ccncc2)cc1` [N-(pyridin-4-ylmethyl)-4-(3-(pyridin-4-ylmethyl)ureido)benzamide], more than 20 µM; in that of `CC(C)(C)NS(=O)(=O)c1ccc(NC(=O)NCc2ccncc2)cc1` [N-(tert-butyl)-4-(3-(pyridin-4-ylmethyl)ureido)benzenesulfonamide], 0.1 to 2 µM.
In the case of `O=C(NCc1ccccc1)Nc1ccc(S(=O)(=O)NCc2ccccc2)cc1` [N-Benzyl-4-(3-benzyl-ureido)-benzenesulfonamide], the EC50 (Table B-3) is more than 20 µM.
For `O=C(NCc1cnco1)Nc1ccc(S(=O)(=O)NCc2ccccc2)cc1` [N-Benzyl-4-(3-oxazol-5-ylmethyl-ureido)-benzenesulfonamide], the EC50 (Table B-1) was in the range of 0.1 to 2 µM.
For the setting “Table B-2”, `O=C(NCc1ccncc1)Nc1ccc(S(=O)(=O)N(Cc2ccccc2)CC(F)(F)F)cc1` [N-Benzyl-4-(3-pyridin-4-ylmethyl-ureido)-N-(2,2,2-trifluoro-ethyl)-benzenesulfonamide] had an EC50 of less than 0.1 µM.
As to `O=C(NCc1ccncc1)Nc1ccc(S(=O)(=O)NCc2ccccc2)cc1` [N-Benzyl-4-(3-pyridin-4-ylmethyl-ureido)-benzenesulfonamide], where the note is “Table B-2”, the EC50 was 0.1 to 2 µM.
Compound `O=C(NCc1cn[nH]c1)Nc1ccc(S(=O)(=O)NCc2ccccc2)cc1` [N-Benzyl-4-[3-(1H-pyrazol-4-ylmethyl)-ureido]-benzenesulfonamide] registered an EC50 (Table B-1) of 0.1 to 2 µM.
`O=C(NCc1ccncc1)Nc1ccc(S(=O)(=O)N(Cc2ccccc2)C2CC2)cc1` [N-Benzyl-N-cyclopropyl-4-(3-pyridin-4-ylmethyl-ureido)-benzenesulfonamide] returned an EC50 (Table B-2) of less than 0.1 µM.
`CCN(Cc1ccccc1)S(=O)(=O)c1ccc(NC(=O)NCc2ccncc2)cc1` [N-Benzyl-N-ethyl-4-(3-pyridin-4-ylmethyl-ureido)-benzenesulfonamide]: the EC50 (Table B-2) was less than 0.1 µM.
Consider `CC(C)N(Cc1ccccc1)S(=O)(=O)c1ccc(NC(=O)NCc2cnco2)cc1` [N-Benzyl-N-isopropyl-4-(3-oxazol-5-ylmethyl-ureido)-benzenesulfonamide], for which the EC50 (Table B-1) was less than 0.1 µM.
As for `CC(C)N(Cc1ccccc1)S(=O)(=O)c1ccc(NC(=O)NCc2ccncc2)cc1` [N-Benzyl-N-isopropyl-4-(3-pyridin-4-ylmethyl-ureido)-benzenesulfonamide], under “Table B-2”, the EC50 is less than 0.1 µM.
In turn, `CC(C)N(Cc1ccccc1)S(=O)(=O)c1ccc(NC(=O)NCc2nccs2)cc1` [N-Benzyl-N-isopropyl-4-(3-thiazol-2-ylmethyl-ureido)-benzenesulfonamide] showed an EC50 (Table B-1) of more than 20 µM.
On to `CC(C)N(Cc1ccccc1)S(=O)(=O)c1ccc(NC(=O)NCc2cncs2)cc1` [N-Benzyl-N-isopropyl-4-(3-thiazol-5-ylmethyl-ureido)-benzenesulfonamide], for which, under “Table B-1”, the concentration for a half-maximal effect (EC50) is less than 0.1 µM.
The same measure, in the same setting: to `CC(C)N(Cc1ccccc1)S(=O)(=O)c1ccc(NC(=O)NCc2cn[nH]c2)cc1` [N-Benzyl-N-isopropyl-4-[3-(1H-pyrazol-4-ylmethyl)-ureido]-benzenesulfonamide] belongs less than 0.1 µM.
Take `O=C(NCc1ccncc1)Nc1ccc(S(=O)(=O)N(Cc2ccccc2)c2ccccc2)cc1` [N-Benzyl-N-phenyl-4-(3-pyridin-4-ylmethyl-ureido)-benzenesulfonamide]: the EC50 (Table B-2) was 0.1 to 2 µM.
On the same count and under the same terms, to `CCCN(Cc1ccccc1)S(=O)(=O)c1ccc(NC(=O)NCc2ccncc2)cc1` [N-Benzyl-N-propyl-4-(3-pyridin-4-ylmethyl-ureido)-benzenesulfonamide] belongs less than 0.1 µM; to `O=C(NCc1ccncc1)Nc1ccc(S(=O)(=O)NC2CCC2)cc1` [N-Cyclobutyl-4-(3-pyridin-4-ylmethyl-ureido)-benzenesulfonamide], 0.1 to 2 µM.
For the compound `O=C(NCc1ccncc1)Nc1ccc(S(=O)(=O)NCC2CCC2)cc1` [N-Cyclobutylmethyl-4-(3-pyridin-4-ylmethyl-ureido)-benzenesulfonamide], the concentration for a half-maximal effect (EC50) (Table B-2) is 0.1 to 2 µM.
The compound `O=C(NCc1cn[nH]c1)Nc1ccc(S(=O)(=O)NCC2CCC2)cc1` [N-Cyclobutylmethyl-4-[3-(1H-pyrazol-4-ylmethyl)-ureido]-benzenesulfonamide] came in with an EC50 (Table B-1) of 0.1 to 2 µM.
Take `CN(CC1CCC1)S(=O)(=O)c1ccc(NC(=O)NCc2ccncc2)cc1` [N-Cyclobutylmethyl-N-methyl-4-(3-pyridin-4-ylmethyl-ureido)-benzenesulfonamide]: the EC50 (Table B-2) lay within 0.1 to 2 µM.
Still for that read-out and setting: to `O=C(NCc1ccncc1)Nc1ccc(S(=O)(=O)NC2CCCCC2)cc1` [N-Cyclohexyl-4-(3-pyridin-4-ylmethyl-ureido)-benzenesulfonamide] belongs 0.1 to 2 µM; to `CN(C1CCCCC1)S(=O)(=O)c1ccc(NC(=O)NCc2ccncc2)cc1` [N-Cyclohexyl-N-methyl-4-(3-pyridin-4-ylmethyl-ureido)-benzenesulfonamide], 0.1 to 2 µM.
Where the note is “Table B-2”, `CC(C)CN(C1CCCC1)S(=O)(=O)c1ccc(NC(=O)NCc2ccncc2)cc1` [N-Cyclopentyl-N-isobutyl-4-(3-pyridin-4-ylmethyl-ureido)-benzenesulfonamide] displayed an EC50 of less than 0.1 µM.
Under “Table B-2”, `CN(C1CCCC1)S(=O)(=O)c1ccc(NC(=O)NCc2ccncc2)cc1` [N-Cyclopentyl-N-methyl-4-(3-pyridin-4-ylmethyl-ureido)-benzenesulfonamide] gave an EC50 of 0.1 to 2 µM.
Where the note is “Table B-1”, `CN(C1CCCC1)S(=O)(=O)c1ccc(NC(=O)NCc2cn[nH]c2)cc1` [N-Cyclopentyl-N-methyl-4-[3-(1H-pyrazol-4-ylmethyl)-ureido]-benzenesulfonamide] returned an EC50 of 0.1 to 2 µM.
Where the note is “Table B-2”, `O=C(NCc1ccncc1)Nc1ccc(S(=O)(=O)NC2CC2)cc1` [N-Cyclopropyl-4-(3-pyridin-4-ylmethyl-ureido)-benzenesulfonamide] returned an EC50 of 2 to 5 µM.
The same measure, in the same setting: to `O=C(NCc1ccncc1)Nc1ccc(S(=O)(=O)NCC2CC2)cc1` [N-Cyclopropylmethyl-4-(3-pyridin-4-ylmethyl-ureido)-benzenesulfonamide] belongs 0.1 to 2 µM; to `CC(C)NC(=O)c1ccc(NC(=O)NCc2ccncc2)cc1` [N-Isopropyl-4-(3-(pyridin-4-ylmethyl)ureido)benzamide], 0.1 to 2 µM.
